Experimental data: patent US8076338B2, “Kinase modulators and methods of use” (Exelixis, Inc., priority 2004, dated 2011)
Where two headings read alike, the source gives them in different places.

Assays:
AktK = AktK (Homo sapiens, UniProt P31749); assay: Luciferase-coupled chemiluminescence kinase assay (ATP consumption); assay type: biochemical; conditions: read-out: AKT-1 IC50
Method in brief: (§1)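 Enzyme at 2.5-5 nM was preincubated 30 min at room temperature with compound in Tris pH 7.5, MgCl2, TX-100, DTT, then reacted with ATP for 3 h at ambient temperature. Remaining ATP was quantified by luciferase-luciferin chemiluminescence, with consumption kept at 25-60%; […].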

p70S6K = p70S6K (Homo sapiens, UniProt P23443); assay: as above; assay type: biochemical
Method in brief: as §1

Chain of AktK (P31749 whole entry): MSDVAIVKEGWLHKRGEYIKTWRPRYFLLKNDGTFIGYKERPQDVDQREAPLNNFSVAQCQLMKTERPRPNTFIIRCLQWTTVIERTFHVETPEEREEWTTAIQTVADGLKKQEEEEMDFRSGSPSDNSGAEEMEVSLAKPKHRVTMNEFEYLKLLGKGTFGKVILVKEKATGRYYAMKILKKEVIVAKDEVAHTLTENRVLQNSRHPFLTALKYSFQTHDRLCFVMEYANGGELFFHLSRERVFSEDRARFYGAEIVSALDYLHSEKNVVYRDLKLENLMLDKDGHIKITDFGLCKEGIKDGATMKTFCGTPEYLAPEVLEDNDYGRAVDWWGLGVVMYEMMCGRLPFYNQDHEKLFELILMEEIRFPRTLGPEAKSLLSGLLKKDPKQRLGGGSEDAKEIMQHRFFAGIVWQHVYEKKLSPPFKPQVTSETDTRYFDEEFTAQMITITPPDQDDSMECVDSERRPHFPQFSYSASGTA
Chain of p70S6K (P23443 whole entry): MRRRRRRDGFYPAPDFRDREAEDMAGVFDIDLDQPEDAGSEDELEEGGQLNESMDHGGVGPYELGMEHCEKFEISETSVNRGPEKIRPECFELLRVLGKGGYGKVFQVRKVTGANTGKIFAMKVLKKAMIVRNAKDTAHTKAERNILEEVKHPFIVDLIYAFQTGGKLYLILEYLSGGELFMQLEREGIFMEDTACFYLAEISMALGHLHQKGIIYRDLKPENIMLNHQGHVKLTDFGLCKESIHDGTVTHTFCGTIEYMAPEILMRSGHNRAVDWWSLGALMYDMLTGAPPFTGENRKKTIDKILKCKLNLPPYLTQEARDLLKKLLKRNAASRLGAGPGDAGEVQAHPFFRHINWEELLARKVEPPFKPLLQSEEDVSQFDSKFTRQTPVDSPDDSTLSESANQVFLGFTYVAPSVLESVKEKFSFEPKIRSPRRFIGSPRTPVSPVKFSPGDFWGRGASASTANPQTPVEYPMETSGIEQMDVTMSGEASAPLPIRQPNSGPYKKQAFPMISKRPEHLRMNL

Structure (SMILES) | IC50 (AktK; Table 1, class symbols per key) [nM] | IC50 (p70S6K; Table 1, class symbols per key) [nM] | IC50 (AktK) [nM] | IC50 (p70S6K) [nM]
O=[N+]([O-])c1ccccc1N1CCN(c2ncnc3[nH]nc(Br)c23)CC1 [Entry 121, 3-bromo-4-[4-(2-nitrophenyl)piperazin-1-yl]-1H-pyrazolo[3,4-d]pyrimidine] | ≥ 10000 | 100 to 1000 |  | 
CCc1n[nH]c2ncnc(N3CCN(c4nccc5ccccc45)CC3)c12 [Entry 102, 1-[4-(3-ethyl-1H-pyrazolo[3,4-d]pyrimidin-4-yl)piperazin-1-yl]isoquinoline] | ≥ 10000 | < 100 |  | 
Cc1c(NCCN(C)C)cc(Cl)cc1N1CCN(c2ncnc3[nH]nc(Br)c23)CC1 [Entry 148, N′-{3-[4-(3-bromo-1H-pyrazolo[3,4-d]pyrimidin-4-yl)piperazin-1-yl]-5-chloro-2-methylphenyl}-N,N-dimethylethane-1,2-diamine] | < 100 | < 100 |  | 
Fc1ccc(N2CCN(c3ncnc4[nH]nc(Br)c34)CC2)cc1F [Entry 76, 3-bromo-4-[4-(3,4-difluorophenyl)piperazin-1-yl]-1H-pyrazolo[3,4-d]pyrimidine] | ≥ 10000 | 100 to 1000 |  | 
CCc1n[nH]c2ncnc(N3CCN(c4cccc(OC)c4)CC3)c12 [Entry 99, 3-ethyl-4-{4-[3-(methyloxy)phenyl]piperazin-1-yl}-1H-pyrazolo[3,4-d]pyrimidine] | ≥ 10000 | 100 to 1000 |  | 
Brc1n[nH]c2ncnc(N3CCN(c4ccccn4)CC3)c12 [Entry 63, 3-bromo-4-(4-pyridin-2-ylpiperazin-1-yl)-1H-pyrazolo[3,4-d]pyrimidine] | 1000 to 10000 | 100 to 1000 |  | 
Cc1c(NCCN2CCCC2)cc(OCC2CCC2)cc1N1CCN(c2ncnc3[nH]nc(Br)c23)CC1 [Entry 211, 3-[4-(3-bromo-1H-pyrazolo[3,4-d]pyrimidin-4-yl)piperazin-1-yl]-5-[(cyclobutylmethyl)oxy]-2-methyl-N-(2-pyrrolidin-1-ylethyl)aniline] | < 100 | < 100 |  | 
N#Cc1nccnc1N1CCN(c2ncnc3[nH]nc(Br)c23)CC1 [Entry 110, 3-[4-(3-bromo-1H-pyrazolo[3,4-d]pyrimidin-4-yl)piperazin-1-yl]pyrazine-2-carbonitrile] | ≥ 10000 | 100 to 1000 |  | 
CCc1n[nH]c2ncnc(N3CCN(c4cc(Cl)cc(OCCN5CCN(CC)CC5)c4C)CC3)c12 [Entry 25, 4-[4-(5-chloro-3-{[2-(4-ethylpiperazin-1-yl)ethyl]oxy}-2-methylphenyl)piperazin-1-yl]-3-ethyl-1H-pyrazolo[3,4-d]pyrimidine] | 1000 to 10000 | < 100 |  | 
Cc1ccc(Cl)cc1N1CCN(c2ncnc3[nH]nc(C4=CCNCC4)c23)CC1 [Entry 401, 4-[4-(5-chloro-2-methylphenyl)piperazin-1-yl]-3-(1,2,3,6-tetrahydropyridin-4-yl)-1H-pyrazolo[3,4-d]pyrimidine] |  |  | 1000 to 10000 | < 100
Brc1n[nH]c2ncnc(N3CCN(c4cccc(OCCN5CCCCC5)c4)CC3)c12 [Entry 142, 3-bromo-4-(4-{3-[(2-piperidin-1-ylethyl)oxy]phenyl}piperazin-1-yl)-1H-pyrazolo[3,4-d]pyrimidine] | 1000 to 10000 | 100 to 1000 |  | 
COCCOc1cc(NCCN2CCCC2)c(C)c(N2CCN(c3ncnc4[nH]nc(Br)c34)CC2)c1 [Entry 223, 3-[4-(3-bromo-1H-pyrazolo[3,4-d]pyrimidin-4-yl)piperazin-1-yl]-2-methyl-5-{[2-(methyl-oxy)ethyl]oxy}-N-(2-pyrrolidin-1-ylethyl)aniline] | 100 to 1000 | < 100 |  | 
Cc1c(NCCN2CCCC2)cc(CC[Si](C)(C)C)cc1N1CCN(c2ncnc3[nH]nc(Br)c23)CC1 [Entry 246, 3-[4-(3-bromo-1H-pyrazolo[3,4-d]pyrimidin-4-yl)piperazin-1-yl]-2-methyl-N-(2-pyrrolidin-1-ylethyl)-5-[2-(trimethylsilyl)ethyl]aniline] | < 100 | < 100 |  | 
Cc1c(NCCN2CCCC2)cc(F)cc1N1CCN(c2ncnc3[nH]nc(C(F)(F)F)c23)CC1 [Entry 79, 5-fluoro-2-methyl-N-(2-pyrrolidin-1-ylethyl)-3-{4-[3-(trifluoromethyl)-1H-pyrazolo[3,4-d]pyrimidin-4-yl]piperazin-1-yl}aniline] | 100 to 1000 | < 100 |  | 
Clc1ccc(Cl)c(N2CCN(c3ncnc4[nH]nc(Br)c34)CC2)c1 [Entry 95, 3-bromo-4-[4-(2,5-dichlorophenyl)piperazin-1-yl]-1H-pyrazolo[3,4-d]pyrimidine] | ≥ 10000 | < 100 |  | 
N#Cc1ccccc1N1CCN(c2ncnc3[nH]nc(Br)c23)CC1 [Entry 122, 2-[4-(3-bromo-1H-pyrazolo[3,4-d]pyrimidin-4-yl)piperazin-1-yl]benzonitrile] | ≥ 10000 | 100 to 1000 |  | 
CCN1CCN(CCOc2cc(Cl)cc(N3CCN(c4ncnc5[nH]nc(C(F)(F)F)c45)CC3)c2C)CC1 [Entry 81, 4-[4-(5-chloro-3-{[2-(4-ethylpiperazin-1-yl)ethyl]oxy}-2-methylphenyl)piperazin-1-yl]-3-(trifluoromethyl)-1H-pyrazolo[3,4-d]pyrimidine] | 100 to 1000 | < 100 |  | 
CCC(CC)COc1cc(NCCN2CCCC2)c(C)c(N2CCN(c3ncnc4[nH]nc(Br)c34)CC2)c1 [Entry 207, 3-[4-(3-bromo-1H-pyrazolo[3,4-d]pyrimidin-4-yl)piperazin-1-yl]-5-[(2-ethylbutyl)oxy]-2-methyl-N-(2-pyrrolidin-1-ylethyl)aniline] | < 100 | < 100 |  | 

The remaining lines, values ahead:

IC50 (AktK; Table 1, class symbols per key) [nM] | IC50 (p70S6K; Table 1, class symbols per key) [nM] | IC50 (AktK) [nM] | IC50 (p70S6K) [nM] | Structure (SMILES)
< 100 | < 100 |  |  | CCNC(=O)c1cc(NCCN2CCCC2)c(C)c(N2CCN(c3ncnc4[nH]nc(Br)c34)CC2)c1 [Entry 219, 3-[4-(3-bromo-1H-pyrazolo[3,4-d]pyrimidin-4-yl)piperazin-1-yl]-N-ethyl-4-methyl-5-[(2-pyrrolidin-1-ylethyl)amino]benzamide]
< 100 | < 100 |  |  | Cc1ccc(OCC(F)(CF)CF)cc1N1CCN(c2ncnc3[nH]nc(Br)c23)CC1 [Entry 263, 3-bromo-4-[4-(5-{[2,3-difluoro-2-(fluorometh-yl)propyl]oxy}-2-methylphenyl)piperazin-1-yl]-1H-pyrazolo[3,4-d]pyrimidine]
 |  | ≥ 10000 | 1000 to 10000 | Clc1ccc(N2CCN(c3ncnc4[nH]ccc34)CC2)cc1 [Entry 310, 4-[4-(4-chlorophenyl)piperazin-1-yl]-7H-pyrrolo[2,3-d]pyrimidine]
 |  | 1000 to 10000 | 1000 to 10000 | Cc1ccc(Cl)cc1N1CCN(c2ncnc3[nH]nc(-c4cccc(C(=O)O)c4)c23)CC1 [Entry 340, 3-{4-[4-(5-chloro-2-methylphenyl)piperazin-1-yl]-d1H-pyrazolo[3,4-]pyrimidin-3-yl}benzoic acid]
< 100 | < 100 |  |  | Cc1c(NCCN2CCCC2)cc(OCCC(F)(F)F)cc1N1CCN(c2ncnc3[nH]nc(Br)c23)CC1 [Entry 284, 3-[4-(3-bromo-1H-pyrazolo[3,4-d]pyrimidin-4-yl)piperazin-1-yl]-2-methyl-N-(2-pyrrolidin-1-ylethyl)-5-[(3,3,3-trifluoropropyl)oxy]aniline]
< 100 | < 100 |  |  | CCCC(O)c1cc(NCCN2CCCC2)c(C)c(N2CCN(c3ncnc4[nH]nc(Br)c34)CC2)c1 (stereo not drawn) [Entry 286, 1-{3-[4-(3-bromo-1H-pyrazolo[3,4-d]pyrimidin-4-yl)piperazin-1-yl]-4-methyl-5-[(2-pyrrolidin-1-ylethyl)amino]phenyl}butan-1-ol]
 |  | 100 to 1000 | < 100 | CCc1n[nH]c2ncnc(N3CCN(c4cc(Cl)cc(NCCN(C)C)c4C)CC3)c12 [Entry 386, N′-{5-chloro-3-[4-(3-ethyl-1H-pyrazolo[3,4-d]pyrimidin-4-yl)piperazin-1-yl]-2-methylphenyl}-N,N-dimethylethane-1,2-diamine]
100 to 1000 | < 100 |  |  | Cc1ccc(C(=O)O)cc1N1CCN(c2ncnc3[nH]nc(Br)c23)CC1 [Entry 180, 3-[4-(3-bromo-1H-pyrazolo[3,4-d]pyrimidin-4-yl)piperazin-1-yl]-4-methylbenzoic acid]
≥ 10000 | 100 to 1000 |  |  | Clc1cccc(N2CCN(c3ncnc4[nH]nc(Br)c34)CC2)c1Cl [Entry 150, 3-bromo-4-[4-(2,3-dichlorophenyl)piperazin-1-yl]-1H-pyrazolo[3,4-d]pyrimidine]
 |  | 1000 to 10000 | 100 to 1000 | CCc1n[nH]c2ncnc(N3CCN(c4cccc(Cl)c4)C(C(=O)NC)C3)c12 (stereo not drawn) [Entry 353, 1-(3-chlorophenyl)-4-(3-ethyl-1H-pyrazolo[3,4-d]pyrimidin-4-yl)-N-methylpiperazine-2-carboxamide]
 |  | 1000 to 10000 | 1000 to 10000 | Cc1ccc(Cl)cc1N1CCN(c2ncnc3[nH]nc(N4CCN(C)CC4)c23)CC1 [Entry 391, 4-[4-(5-chloro-2-methylphenyl)piperazin-1-yl]-3-(4-methylpiperazin-1-yl)-1H-pyrazolo[3,4-d]pyrimidine]
 |  | ≥ 10000 | 100 to 1000 | c1ccc(N2CCN(c3ncnc4[nH]ncc34)CC2)cc1 [Entry 297, 4-(4-phenylpiperazin-1-yl)-1H-pyrazolo[3,4-d]pyrimidine]
 |  | 1000 to 10000 | 1000 to 10000 | Cc1ccc(Cl)cc1N1CCN(c2nc(C(C)C)nc3[nH]ncc23)CC1 [Entry 326, 4-[4-(5-chloro-2-methylphenyl)piperazin-1-yl]-6-(1-methylethyl)-1H-pyrazolo[3,4-d]pyrimidine]
 |  | 1000 to 10000 | < 100 | CCc1n[nH]c2ncnc(N3CCN(c4cc(Cl)ccc4OC)CC3)c12 [Entry 334, 4-{4-[5-chloro-2-(methyloxy)phenyl]piperazin-1-yl}-3-ethyl-1H-pyrazolo[3,4-d]pyrimidine]
 |  | ≥ 10000 | 100 to 1000 | Cc1ccccc1N1CCN(c2ncnc3[nH]cnc23)CC1 [Entry 315, 6-[4-(2-methylphenyl)piperazin-1-yl]-9H-purine]
